In patent US20040009168A1, “Multidose antibody formulation” (priority 2002, published 2004):
“Also recorded” adds a separate entry of the source.

Assays:
[1] = test system: formulated humanized monoclonal antibody; experiment: Visual analysis of the antibody formulation with preservative; format: physicochemical; conditions: for Visual analysis: after 2 days at 50° C.
Description: (§1) The compatibility of six parenteral preservatives (benzyl alcohol, chlorobutanol, methyl paraben, propyl paraben, phenol, and m-cresol) with the formulated humanized monoclonal antibody was tested. The preservatives were added to the formulated antibody based on their commonly used concentration ranges in marketed multidose products (3). Protein aggregation was suspected to be the primary degradation pathway. Preliminary evaluation of the preservatives was done initially by DSC and after 2 days of incubation at 50° C. by visual inspection for appearance and by SEC for soluble aggregates.

[2] = test system: formulated humanized monoclonal antibody; experiment: Size-exclusion chromatography (SEC), monomer content; format: physicochemical; conditions: for Monomer (%): 1 week at 45 ° C.; for Percent monomer (by SEC): after 2 days at 50° C.
Description: as §1
(§2) Because of the results seen in the preliminary evaluation, additional analyses were done using lower concentrations of the preservatives.
The monomer content, soluble aggregates, and clips due to hydrolysis were monitored by size-exclusion chromatography. The analytical system employed consisted of an HPLC pump (Perkin Elmer, Series 410) and an autosampler (Perkin Elmer, ISS 2000) connected to a diode array detector (Perkin Elmer, 235C). Two size-exclusion chromatography columns (Tosohaas TSK-Gel, G3000SWXL,), connected in tandem, were used for sample separation. The composition of the mobile phase was 200 mM KPO4, 150 mM NaCl, pH 6.9. Samples were diluted to 1 mg/mL and a sample volume of 40 μL was injected for analysis. The flow rate was 1.0 mL/min, and detection was at 220 and 280 nm.

[3] = test system: formulated humanized monoclonal antibody; experiment: Differential scanning calorimetry (DSC), denaturation temperature; format: physicochemical; conditions: initial time point, t0
Description: as §1
A decrease in the denaturation temperature reflects a destabilizing effect of the preservative on formulation stability. The denaturation temperature (Tm) of the sample was measured using the Pyris 1 differential scanning calorimeter (Perkin Elmer). A sample volume of 50 μL was taken from a 10 mg/mL protein sample and sealed in a stainless steel pan. The sample was held at 32° C. for 2 minutes, and heated to 100° C. at the rate of 10° C./min.

[4] = test system: antigen expressed on human T cells; experiment: Potency testing by FACS binding assay (flow cytometry); conditions: 1 week at 45 ° C.
Description: as §2
The biological activity (potency) of the protein was measured by flow cytometry, based on the binding of the antibody antigen expressed on human T cells.

[5] = test system: Escherichia coli, Staphylococcus aureus, Pseudomonas aeruginosa; experiment: Preservative screening test (modified USP/EP preservative efficacy test), bacteria; format: cell-based; conditions: for b-coefficient, Bacterial LR: ± 95% confidence limits; for Bacterial × 10^4 (cfu/mL): 1 week at 25 ° C., total bacterial count 8.78 × 10^4 cfu/mL
Description: (§3) The efficacy of the preservative against various microorganisms was measured using a modified USP/EP preservative efficacy test. These tests were conducted at Microconsult Inc. (Dallas, Tex.). In the procedure, formulations were tested against the following microorganisms: Escherichia coli, Staphylococcus aureus, Pseudomonas aeruginosa, Candida albicans, and Aspergillus niger. The three bacterial strains were inoculated together at a total concentration of ˜10^5 cfu/mL, and the two fungi were inoculated together at a total concentration of ˜10^5 cfu/mL. Samples were incubated for 7 days at room temperature (25° C.), and the total bacterial and fungal counts were measured using a colony counter. The log reduction (LR) values for the bacterial and fungal counts were calculated as log (initial count/final count).
(§4) In the unmodified USP/EP preservative efficacy tests, each microorganism is tested separately at a concentration of ˜10^5 cfu/mL. […] The preservative efficacy test was modified in this study to reduce the total sample requirement and cost per analysis. Although the bacterial and fungal strains were not tested individually at specified concentrations, by comparing the overall bacterial and fungal log reduction values with the regulatory requirements, an assessment is made of the efficacy of the preservative against these microorganisms.
(§5) The formulations were prepared by adding the preservatives at the desired concentrations as per the I-optimal design table (Table II), generated using the software Strategy (Experiment Strategies Foundation & Process Builder, Inc.). All samples were incubated at 37° C. for 9 weeks. Because protein aggregation was known to be the primary degradation pathway, protein stability was examined by SEC and right-angle light scattering to monitor the formation of soluble and insoluble aggregates, respectively, and by UV spectroscopy to monitor changes in the protein concentration. The biological activity of the samples was assessed after 1 month at 37° C. Furthermore, to assess the antimicrobial efficacy of the formulations, samples were examined by the preservative screening test at the initial time point. Samples were incubated at room temperature, and the aerobic plate counts were measured based on the minimum requirements of the USP and BP/EP preservative efficacy tests at 24 hours, 7 days, and 14 days.

[6] = test system: Candida albicans, and Aspergillus niger; experiment: Preservative screening test (modified USP/EP preservative efficacy test), fungi; format: cell-based; conditions: for Fungi × 10^5 (cfu/mL): 1 week at 25 ° C., total fungal count 2.84 × 10^5 cfu/mL
Description: as §3, §4, §5

[7] = test system: Escherichia coli, Staphylococcus aureus, Pseudomonas aeruginosa, Candida albicans, and Aspergillus niger; experiment: USP and EP/BP preservative efficacy tests; format: cell-based; conditions: 0.75% benzyl alcohol
Description: as §4
The antimicrobial efficacy of the preservative was monitored by the USP and EP/BP preservative efficacy tests.

[8] = test system: formulated humanized monoclonal antibody; experiment: Stability and bioactivity of the protein formulated with 0.75% benzyl alcohol, monitored over time; format: physicochemical
[9] = preservative 0.5%, listed as benzyl alcohol
[10] = main effect of the preservative (bi)
[11] = preservative 0.75%, listed as benzyl alcohol
[12] = quadratic term of one preservative (bii)
[13] = single preservative, 0.75% benzyl alcohol

OCc1ccccc1 [Benzyl alcohol, benzyl alcohol]
antibody precipitation ([1]; benzyl alcohol at high concentration such as 1.0%): causes antibody precipitation
Visual analysis ([1]; preservative 0.5%): Clear
Visual analysis [1, 9]: clear
Visual analysis ([1]; preservative 1.0%): Slightly cloudy
Visual analysis ([1]; preservative 2%): caused sample precipitation; also recorded: Precipitated
Stability by SEC (in words) ([2]; 7 days at 45° C.): unstable due to the formation of soluble aggregates
aggregation (in words) ([2]; benzyl alcohol at high concentrations (≧1.0%)): caused significant aggregation
Monomer (%) ([2]; preservative 0.1%): 97.65%
Monomer (%) ([2]; preservative 0.5%): 93.92%
Percent monomer (by SEC) ([2]; preservative 0.5%): 92.3%
Percent monomer (by SEC) [2, 9]: ~92%
Monomer (%) ([2]; preservative 0.75%): 87.97%
Percent monomer (by SEC) ([2]; preservative 1.0%): 13.4%
Tm (by DSC) ([3]; preservative 0.5%): 78.5 °C
Tm (by DSC) ([3]; preservative 1.0%): 75.8 °C
Tm (by DSC) ([3]; preservative 2%): 72.3 °C
Potency (%) ([4]; preservative 0.1%): 81%
Potency (%) ([4]; preservative 0.5%): 75%
Potency (%) ([4]; preservative 0.75%): 74%
antimicrobial efficacy against bacteria (regression analysis, in words) ([5]; I-optimal design, 14 days at room temperature): statistically significant antimicrobial efficacy
b-coefficient, Bacterial LR [5, 10]: 1.04 ± 0.05
Bacterial × 10^4 (cfu/mL) ([5]; preservative 0.1%): TNTC
Bacterial × 10^4 (cfu/mL) ([5]; preservative 0.5%): 0 × 10^4 cfu/mL
Bacterial × 10^4 (cfu/mL) [5, 9]: complete kill
Bacterial × 10^4 (cfu/mL) ([5]; preservative 0.75%): 0 × 10^4 cfu/mL
Bacterial × 10^4 (cfu/mL) [5, 11]: complete kill
b-coefficient, Bacterial LR [5, 12]: −0.68 ± 0.11
log reduction value predicted by simulation, bacteria [5, 13]: 4.8
antimicrobial efficacy against fungi (in words) ([6]; 7 days, at least 0.5% benzyl alcohol, parabens and chlorobutanol at their highest concentration): satisfactory
b-coefficient, Fungal LR [6, 10]: 0.51
Fungi × 10^5 (cfu/mL) ([6]; preservative 0.1%): 12 × 10^5 cfu/mL
Fungi × 10^5 (cfu/mL) ([6]; preservative 0.5%): 0 × 10^5 cfu/mL
Fungi × 10^5 (cfu/mL) [6, 9]: complete kill
Fungi × 10^5 (cfu/mL) ([6]; preservative 0.75%): 0 × 10^5 cfu/mL
Fungi × 10^5 (cfu/mL) [6, 11]: complete kill
b-coefficient, Fungal LR [6, 12]: −0.46
log reduction value predicted by simulation, fungi [6, 13]: 3.7
USP and EP/BP regulatory requirements [7]: USP and EP/BP (criterion B only) regulatory requirements were satisfied
protein stability compared with the control formulation [8]: comparable to that of the control formulation
